“And” between values parts separate entries of the source, which are not always exact repeats. Equal values may be shown once. Where a name gives a salt, the structure may show the parent alone. Read-outs that look alike come from different tables or passages of the source.

This experiment relates to SOX2. As to the kind of experiment: Screen of a library of FDA-approved drugs for SOX2 antibody staining in A375 cells treated with PLX4720 and AZD6244. Particulars: for cor. loess: normalized and geometry-corrected (loess) signal; for norm: signal after plate normalization.
[1] abbreviates: A375 cells, 5 uM test drug with 1 uM PLX4720 and 0.5 uM AZD6244, 24 h.
[2] abbreviates: A375 cells, 5 uM test drug with 1 uM PLX4720 and 0.5 uM AZD6244, 24 h, raw signal (ratio of FL2 SOX2 antibody and FL3 nuclear staining), screen run in duplicate.
Setting [3] is: Z-test against negative controls (DMSO), single dose 5 uM.

Under setting [1], `CCCCC(CC)CN1CN(CC(CC)CCCC)CC(C)(N)C1` (centres unmarked) [HEXETIDINE] gave a cor. loess of 0.3155 and a norm of 0.2651. The raw under setting [2] is reported as 0.9834. For the same compound, the z under setting [3] was found to be 3.497.

On to MONENSIN SODIUM, for which, under setting [1], the cor. loess worked out at 0.5359 and the norm was found to be 0.5968. Under setting [2], the raw was found to be 0.9761. Under setting [3], this compound registered a z of 4.599.

Regarding `C[C@H]1C[C@@H]2[C@H]([C@@H](O)C[C@@]3(C)[C@H]2CC[C@]3(O)C(=O)COC(=O)CCC(=O)O)[C@@]2(C)C=CC(=O)C=C12` [METHYLPREDNISOLONE SODIUM SUCCINATE], under setting [1], the cor. loess was determined as 0.4008 and the norm stood at 0.4166. Besides, under setting [2], the raw is 0.9806. Under setting [3], the z was determined as 5.452.

Under setting [1], `Cc1cc(Nc2ncc(Cl)c(Nc3ccccc3S(=O)(=O)C(C)C)n2)c(OC(C)C)cc1C1CCNCC1` [LDK378] registered a cor. loess of 3.065 and a norm of 3.411. In addition, the raw under setting [2] is 0.8857. The z under setting [3] is listed as 23.92.

As for `Cc1cc(C#N)cc(C)c1Oc1nc(Nc2ccc(C#N)cc2)nc(N)c1Br` [Etravirine (TMC125), Etravirine], under setting [1], the cor. loess is recorded as 0.646 and the norm is listed as 0.6589. Besides, the raw under setting [2] worked out at 0.9731. Under setting [3], the z came out at 6.907.

On to `C1CCC(C(CC2CCCCN2)C2CCCCC2)CC1` (centres unmarked) [PERHEXILINE MALEATE], for which, under setting [1], the cor. loess worked out at 0.3464 and the norm turned out to be 0.4809. Further, the raw under setting [2] was found to be 0.9786. For the same compound, under setting [3], the z amounted to 4.713.

Under setting [1], `CC(=O)c1cc2c(o1)C(=O)c1ccccc1C2=O` [Napabucasin] gave a cor. loess of 0.8204 and a norm of 0.8869. For the same compound, under setting [2], the raw came to 0.9658. Also, the z under setting [3] is listed as 6.402.

Under setting [1], `CC(=O)Nc1c(I)cc(I)c(C(=O)O)c1I` [ACETRIAZOIC ACID] showed a cor. loess of 0.3537 and a norm of 0.3797. Moreover, the raw under setting [2] is on record as 0.9817. The compound also came in with a z under setting [3] of 4.812.

Under setting [1], `CC(C)COc1ccc(CNC(=O)N(Cc2ccc(F)cc2)C2CCN(C)CC2)cc1` [Pimavanserin] returned a cor. loess of 0.7376 and a norm of 0.7906. Also, the raw under setting [2] came to 0.9689. Under setting [3], this compound had a z of 5.755.

On to `CCCSc1ccc2nc(NC(=O)OC)[nH]c2c1` [ALBENDAZOLE], for which the raw came to 0.9811. Under setting [1], the cor. loess stood at 0.3977 and the norm was determined as 0.3992. Under setting [3], this compound returned a z of 5.411.

For the compound `CCCC(=O)O[C@]1(C(=O)COC(C)=O)CC[C@H]2[C@@H]3C[C@H](F)C4=CC(=O)C=C[C@]4(C)[C@@]3(F)[C@@H](O)C[C@@]21C` [Difluprednate], under setting [1], the cor. loess came to 0.4529 and the norm worked out at 0.4293. In addition, the raw under setting [2] stood at 0.9801. Under setting [3], this compound had a z of 4.842.

Turning to `CCOc1cc2ncc(C#N)c(Nc3ccc(OCc4ccccn4)c(Cl)c3)c2cc1NC(=O)/C=C/CN(C)C` [Neratinib (HKI-272), Neratinib], under setting [1], the cor. loess was found to be 4.182 and the norm stood at 4.156. The raw under setting [2] was 0.9044. This compound registered a z under setting [3] of 16.11.

Turning to `COC(=O)C[C@](O)(CCCC(C)(C)O)C(=O)O[C@@H]1C(OC)=C[C@]23CCCN2CCc2cc4c(cc2[C@H]13)OCO4` [Homoharringtonine], under setting [1], the cor. loess is on record as 1.181 and the norm stood at 1.161. Also, under setting [2], the raw was 0.9576. Besides, the z under setting [3] was 8.354.

Under setting [1], `[H]/N=C(/NCCCCC)N/N=C/c1c[nH]c2ccc(OC)cc12` [TEGASEROD MALEATE] gave a cor. loess of 0.2864 and a norm of 0.2748. Besides, under setting [2], the raw was found to be 0.9849. Besides, the z under setting [3] worked out at 3.897.

Under setting [1], `CCCCCCCCCCCCCCCC[N+](C)(C)C.[Br-]` [CETRIMONIUM BROMIDE] registered a cor. loess of 5.014 and a norm of 4.765. For the same compound, the raw under setting [2] is reported as 0.8841. The compound further came in with a z under setting [3] of 19.51.

Take `CC(C)Oc1ccc2c(=O)c(-c3ccccc3)coc2c1` [IPRIFLAVONE]: under setting [1], the cor. loess worked out at 0.3885 and the norm amounted to 0.3563. In addition, under setting [2], the raw was determined as 0.9807. The z under setting [3] amounted to 4.307.

Under setting [1], `CCN1CCN(Cc2ccc(Nc3ncc(F)c(-c4cc(F)c5nc(C)n(C(C)C)c5c4)n3)nc2)CC1` [LY2835219] yielded a cor. loess of 1.234 and a norm of 1.024. In addition, under setting [2], the raw is 0.963. Besides, the z under setting [3] came to 4.755.

With `O=c1[nH]c(=O)n([C@H]2C[C@H](O)[C@@H](CO)O2)cc1C(F)(F)F` [TRIFLURIDINE], under setting [1], the cor. loess is 0.4387 and the norm is 0.4485. The raw under setting [2] was determined as 0.9796. This compound gave a z under setting [3] of 5.969.

As to `CCOC(=O)O[C@]1(C(=O)COC(=O)CC)CC[C@H]2[C@@H]3CCC4=CC(=O)C=C[C@]4(C)[C@H]3[C@@H](O)C[C@@]21C` [PREDNICARBATE], under setting [1], the cor. loess was 0.3992 and the norm is 0.4403. Further, the raw under setting [2] stood at 0.9782. Moreover, the z under setting [3] is 4.425.

Under setting [1], `CO[C@H]1C[C@@H]2CC[C@@H](C)[C@@](O)(O2)C(=O)C(=O)N2CCCC[C@H]2C(=O)O[C@H]([C@H](C)C[C@@H]2CC[C@@H](O)[C@H](OC)C2)CC(=O)[C@H](C)/C=C(\C)[C@@H](O)[C@@H](OC)C(=O)[C@H](C)C[C@H](C)/C=C/C=C/C=C/1C` [SIROLIMUS] registered a cor. loess of 0.3171 and a norm of 0.4075. In addition, the raw under setting [2] came to 0.9808. Under setting [3], this compound came in with a z of 4.314.

Under setting [1], `CN(C)c1ccc2nc3ccc(=[N+](C)C)cc-3sc2c1` [METHYLENE BLUE] came in with a cor. loess of 0.5193 and a norm of 0.5531. The raw under setting [2] turned out to be 0.9751. Also, the z under setting [3] stood at 3.072.

`CCC(=O)O[C@]1(C(=O)CCl)[C@@H](C)C[C@H]2[C@@H]3CCC4=CC(=O)C=C[C@]4(C)[C@@]3(F)[C@@H](O)C[C@@]21C` [CLOBETASOL PROPIONATE]: under setting [1], the cor. loess was determined as 0.4021 and the norm was determined as 0.4554. The raw under setting [2] is 0.9794. The compound further returned a z under setting [3] of 5.471.

`C[CH2][Hg][S]c1ccccc1C(=O)[O-].[Na+]` [THIMEROSAL]: the raw is 0.9726 and 0.8663.

Under setting [1], `CC1(C)O[C@@H]2C[C@H]3[C@@H]4C[C@H](F)C5=CC(=O)C=C[C@]5(C)[C@@]4(F)[C@@H](O)C[C@]3(C)[C@]2(C(=O)CO)O1` [FLUOCINOLONE ACETONIDE] yielded a cor. loess of 0.4202 and a norm of 0.434. Also, under setting [2], the raw was 0.9791. Further, the z under setting [3] was found to be 3.463.

Under setting [1], `Cc1cnc(Nc2ccc(OCCN3CCCC3)cc2)nc1Nc1cccc(S(=O)(=O)NC(C)(C)C)c1` [TG101348 (SAR302503)] displayed a cor. loess of 1.471 and a norm of 1.142. Further, the raw under setting [2] stood at 0.9608. The compound further returned a z under setting [3] of 5.665.

`Nc1ncn([C@@H]2O[C@H](CO)[C@@H](O)[C@H]2O)c(=O)n1` [AZACITIDINE]: under setting [1], the cor. loess stood at 0.9945 and the norm came to 0.9714. Further, the raw under setting [2] was 0.9651. The compound also gave a z under setting [3] of 8.534.

Consider `CCN(CC)C(=S)SSC(=S)N(CC)CC`, for which, under setting [1], the cor. loess came to 0.5909 and the norm was 0.642. For the same compound, under setting [2], the raw is reported as 0.973. In addition, the z under setting [3] stood at 4.87.

Under setting [1], `O=C(CCCCCCNC(=O)c1cnc(N(c2ccccc2)c2ccccc2)nc1)NO` [Rocihnostat (ACY-1215), Rocihnostat] showed a cor. loess of 0.6577 and a norm of 0.7378. For the same compound, the raw under setting [2] is 0.9705. This compound also displayed a z under setting [3] of 5.132.

Under setting [1], `C[C@@H]1C[C@H]2[C@@H]3C[C@H](F)C4=CC(=O)C=C[C@]4(C)[C@@]3(F)[C@@H](O)C[C@]2(C)[C@@]1(O)C(=O)COC(=O)C(C)(C)C` [FLUMETHAZONE PIVALATE] registered a cor. loess of 0.4809 and a norm of 0.5179. Moreover, the raw under setting [2] is given as 0.9766. Also, the z under setting [3] is 3.963.

As for `C[C@]12C=CC(=O)C=C1CC[C@H]1[C@@H]3C[C@@H](O)[C@](O)(C(=O)CO)[C@@]3(C)C[C@H](O)[C@@]12F` [TRIAMCINOLONE], under setting [1], the cor. loess is reported as 0.4006 and the norm is given as 0.3941. Besides, under setting [2], the raw is given as 0.9821. Under setting [3], this compound registered a z of 3.438.

Compound HYDROCORTISONE HEMISUCCINATE registered a z of 3.809. Further, under setting [1], the cor. loess is 0.4622 and the norm turned out to be 0.507.

`CCC(=O)OCC(=O)[C@@]1(OC(=O)CC)[C@@H](C)C[C@H]2[C@@H]3CCC4=CC(=O)C=C[C@]4(C)[C@@]3(F)[C@@H](O)C[C@@]21C` [BETAMETHASONE 17,21-DIPROPIONATE]: under setting [1], the cor. loess came to 0.4356 and the norm came out at 0.4336. In addition, the raw under setting [2] was 0.9801. The compound further came in with a z under setting [3] of 5.927.

Take `CCCCCCc1ccc(O)cc1O.Nc1c2ccccc2nc2ccccc12` [ACRISORCIN]: the raw under setting [2] is 0.9675 and 0.9751. Further, under setting [1], the norm is 0.7754 and 0.5959. Moreover, the z under setting [3] is 4.872 and 7.943.

Under setting [1], `CC(=O)OCC(=O)[C@@]1(O)CC[C@H]2[C@@H]3CCC4=CC(=O)C=C[C@]4(C)[C@H]3[C@@H](O)C[C@@]21C` [PREDNISOLONE ACETATE] displayed a cor. loess of 0.4697 and a norm of 0.4997. The raw under setting [2] is listed as 0.9772. Moreover, the z under setting [3] was 3.871.

Values taken from patent US20200325543A1, “DIAGNOSTIC METHOD” (TOLREMO THERAPEUTICS AG, priority 2017, published 2020).
